From US20190382396A1, “SALTS OF BICYCLO[1.1.1]PENTANE INHIBITORS OF DUAL LEUCINE ZIPPER (DLK) KINASE FOR THE TREATMENT OF DISEASE” (Board of Regents, The University of Texas System, priority 2018, published 2019)
Read-outs that look alike come from different tables or passages of the source.

How the values were obtained:
Format in all cases: physicochemical
[1] = Polymorph formation of hydrogen fumarate salt 11 (slurry, anti-solvent, heat-cool); parameters: key to Observation 50° C. / observation rt / observation 60° C.: “s” = slurry; “c” = clear
Protocol: Formation of polymorphs of the hydrogen fumarate salt 11 was examined. About 15 mg of hydrogen fumarate salt 11 was combined with 0.5 mL of a selected organic solvent in a vial. The mixture was stirred at 700 RPM at 50° C. for 2 days. If a solid precipitate was present, the solid precipitate was then removed by centrifugation (14,000 RPM, 5 min) and dried under vacuum at 30° C. (Method I). If a solid precipitate was not present, the solvent was removed by evaporation under vacuum at 30° C. (Method II). In either case, the resulting material was evaluated by XRPD.
Polymorph formation was examined with a slurry method using various solvents. About 500 mg of hydrogen fumarate salt 11 was combined with 50 mL of DMSO and 1 mL DMF to afford a saturated solution. Anti-solvent (no more than 5x solution volume) chosen from EtOH, iPrOH, acetone, water, and EtOAc was added. In no case was a precipitate formed.
Polymorph formation was further examined with a heat-cool method using various solvents. About 100 mg of hydrogen fumarate salt 11 was combined with 1 mL of a selected solvent. The mixture was stirred at 700 RPM for 4 hrs at 60° C., then allowed to cool to room temperature. The cycle was repeated twice. If a solid precipitate was present, the solid precipitate was then removed by centrifugation and dried under vacuum at 30° C. (Method I). If a solid precipitate was not present, the solvent was removed by evaporation (Method II). In either case, the resulting material was evaluated by XRPD.

[2] = Dynamic vapor sorption (DVS), hygroscopicity
Protocol: Dynamic vapor sorption (“DVS”) was performed at 25° C., using approx 10-15 mg of sample and N2 gas at a flow rate of 200 mL/min, dm/dt=0.01% min, minimum dm/dt stability duration of 10 min, max equilibration time of 180 min, drying at 0% RH for 120 min, scanning from 0% RH to 90% RH to 0% RH with a step size of 10% RH.
Total cycling time varied, but in all cases was about 200-250 min.

[3] = Stability (50° C., 40° C./75% RH, light; 1 week); settings: for XRPD change? / purity: bulk, 1 week
Protocol: The stability of the free base 1 and the selected salts 8, 9, 10, and 11 was evaluated. For each material, aliquots were set up at each of conditions (50° C., 40° C./75% RH, light) at given time points (initial and 1 week). PXRD diffractograms of the hydrogen fumarate salt 11 is shown in FIG. 17, with trace (a) showing the initial salt, trace (b) showing the salt after light treatment, trace (c) showing the salt after storage at 40° C. and 75% relative humidity for 1 week, and (d) showing the salt after storage at 50° C. for 1 week.

[4] = Solubility in physiologically relevant solutions (SGF, FaSSIF, FeSSIF); settings: 25±0.5° C.; for solubility at 24 h: 25 °C, thermodynamic from solid
Protocol: Solubility of the free base 1 and the selected salts 8, 9, 10, and 11 in physiologically relevant solutions were examined. For each material, aliquots were added to 2 ml vials containing 500 uL of either SGF, FaSSIF, or FeSSIF, which were then sealed. The mixtures were kept shaking by thermomixer at 700 rpm, 25±0.5° C. for 24 h to facilitate the dissolution and then centrifuged by 96-well plates at 3000 rpm for 2 min. The filter liquors were diluted with diluents (ACN/water, 50/50) and analyzed by HPLC.

[5] = Solubility of hydrogen fumarate salt 11 (1000 mg scale-up batch)

observation 60° C. ([1]; heat-cool method, Acetone): s | observation rt ([1]; heat-cool method, Acetone): s | observation 60° C. ([1]; heat-cool method, EtOAc): s | observation rt ([1]; heat-cool method, EtOAc): s | observation 60° C. ([1]; heat-cool method, EtOH): s | observation rt ([1]; heat-cool method, EtOH): s | XRPD results ([1]; heat-cool method, THF): amorphous | observation 60° C. ([1]; heat-cool method, THF): c | observation rt ([1]; heat-cool method, THF): c | observation 60° C. ([1]; heat-cool method, iPrOH): s | observation rt ([1]; heat-cool method, iPrOH): s | Observation 50° C. ([1]; slurry 50° C., 2 days, 1/1 (v/v) EtOH/H2O): c | Observation 50° C. ([1]; slurry 50° C., 2 days, 1/1 (v/v) acetone/H2O): c | Observation 50° C. ([1]; slurry 50° C., 2 days, Acetone): c | Observation 50° C. ([1]; slurry 50° C., 2 days, CH2Cl2): s | Observation 50° C. ([1]; slurry 50° C., 2 days, CH3CN): s | Observation 50° C. ([1]; slurry 50° C., 2 days, Dioxane): c | Observation 50° C. ([1]; slurry 50° C., 2 days, EtOAc): s | Observation 50° C. ([1]; slurry 50° C., 2 days, EtOH): c | Observation 50° C. ([1]; slurry 50° C., 2 days, H2O): s | Observation 50° C. ([1]; slurry 50° C., 2 days, Heptane): s | Observation 50° C. ([1]; slurry 50° C., 2 days, MeOH): c | XRPD pattern ([1]; slurry 50° C., 2 days, MeOH): almost | Observation 50° C. ([1]; slurry 50° C., 2 days, Toluene): s | Observation 50° C. ([1]; slurry 50° C., 2 days, iPrOH): c | Maximum sorption ([2]; DVS, 25° C.): 0.47% | Hygroscopicity (0-40% RH) ([2]; DVS, 25° C., 0-40% RH): 0.1% | Hygroscopicity (0-90% RH) ([2]; DVS, 25° C., 0-90% RH): 0.47% | Change in mass (%) Desorption ([2]; DVS, Target % P/P0 0.0): −0.0114% | Change in mass (%) Sorption ([2]; DVS, Target % P/P0 0.0): 0.0000% | Change in mass (%) Desorption ([2]; DVS, Target % P/P0 10.0): 0.0209% | Change in mass (%) Hysteresis ([2]; DVS, Target % P/P0 10.0): 0.0010% | Change in mass (%) Sorption ([2]; DVS, Target % P/P0 10.0): 0.0200% | Change in mass (%) Desorption ([2]; DVS, Target % P/P0 20.0): 0.0448% | Change in mass (%) Hysteresis ([2]; DVS, Target % P/P0 20.0): 0.0067% | Change in mass (%) Sorption ([2]; DVS, Target % P/P0 20.0): 0.0381% | Change in mass (%) Desorption ([2]; DVS, Target % P/P0 30.0): 0.0866% | Change in mass (%) Hysteresis ([2]; DVS, Target % P/P0 30.0): 0.0286% | Change in mass (%) Sorption ([2]; DVS, Target % P/P0 30.0): 0.0581% | Change in mass (%) Desorption ([2]; DVS, Target % P/P0 40.0): 0.1238% | Change in mass (%) Hysteresis ([2]; DVS, Target % P/P0 40.0): 0.0267% | Change in mass (%) Sorption ([2]; DVS, Target % P/P0 40.0): 0.0971% | Change in mass (%) Desorption ([2]; DVS, Target % P/P0 50.0): 0.1695% | Change in mass (%) Hysteresis ([2]; DVS, Target % P/P0 50.0): 0.0352% | Change in mass (%) Sorption ([2]; DVS, Target % P/P0 50.0): 0.1343% | Change in mass (%) Desorption ([2]; DVS, Target % P/P0 60.0): 0.2285% | Change in mass (%) Hysteresis ([2]; DVS, Target % P/P0 60.0): 0.0457% | Change in mass (%) Sorption ([2]; DVS, Target % P/P0 60.0): 0.1828% | Change in mass (%) Desorption ([2]; DVS, Target % P/P0 70.0): 0.2885% | Change in mass (%) Hysteresis ([2]; DVS, Target % P/P0 70.0): 0.0438% | Change in mass (%) Sorption ([2]; DVS, Target % P/P0 70.0): 0.2447% | Change in mass (%) Hysteresis ([2]; DVS, Target % P/P0 80.0): 0.0390% | Change in mass (%) Sorption ([2]; DVS, Target % P/P0 80.0): 0.3295% | Change in mass (%) Desorption ([2]; DVS, Target % P/P0 90.0): 0.4742% | Change in mass (%) Sorption ([2]; DVS, Target % P/P0 90.0): 0.4742% | Hygroscopicity; form change ([2]; form change after DVS): no change | XRPD change? ([3]; 40° C., 75% RH): no | purity ([3]; 40° C., 75% RH): 99.88% | XRPD change? ([3]; 50° C.): no | purity ([3]; 50° C.): 99.89% | initial purity ([3]; initial (before storage)): 99.85% | XRPD change? ([3]; light): no | purity ([3]; light): 99.89% | solubility at 24 h ([4]; simulated gastric fluid, SGF, read-out: Solubility SGF Conc): 5.81 mg/mL | solubility at 24 h ([4]; FaSSIF, read-out: Solubility FaSSIF Conc): 0.459 mg/mL | solubility at 24 h ([4]; FeSSIF, read-out: Solubility FeSSIF Conc): 0.646 mg/mL | FaSSIF pH after 24 h ([4]; FaSSIF): 4.85 | FeSSIF pH after 24 h ([4]; FeSSIF): 4.84 | SGF pH after 24 h ([4]; SGF): 3.01 | solubility ([5]; aqueous with cosolvent or surfactant or cyclodextrin, 1/1 (v/v) Acetone/H2O, 50° C.): 50 to 100 mg/mL | solubility ([5]; aqueous with cosolvent or surfactant or cyclodextrin, 1/1 (v/v) Acetone/H2O, RT): < 33 mg/mL | solubility ([5]; aqueous with cosolvent or surfactant or cyclodextrin, 1/1 (v/v) EtOH/H2O, 50° C.): 50 to 100 mg/mL | solubility ([5]; aqueous with cosolvent or surfactant or cyclodextrin, 1/1 (v/v) EtOH/H2O, RT): 20 to 33 mg/mL | solubility ([5]; ethanol, organic solvent or mixture, EtOH, 50° C.): 20 to 33 mg/mL | solubility ([5]; ethanol, organic solvent or mixture, EtOH, RT): < 20 mg/mL | solubility ([5]; organic solvent or mixture, ACN, 50° C.): < 10 mg/mL | solubility ([5]; organic solvent or mixture, ACN, RT): < 10 mg/mL | solubility ([5]; organic solvent or mixture, Acetone, 50° C.): 10 to 20 mg/mL | solubility ([5]; organic solvent or mixture, Acetone, RT): < 10 mg/mL | solubility ([5]; organic solvent or mixture, DCM, 50° C.): < 10 mg/mL | solubility ([5]; organic solvent or mixture, DCM, RT): < 10 mg/mL | solubility ([5]; organic solvent or mixture, DMF, RT): > 100 mg/mL | solubility ([5]; organic solvent or mixture, DMSO, 50° C.): > 100 mg/mL | solubility ([5]; organic solvent or mixture, DMSO, RT): < 100 mg/mL | solubility ([5]; organic solvent or mixture, Dioxane, 50° C.): 20 to 33 mg/mL | solubility ([5]; organic solvent or mixture, Dioxane, RT): < 20 mg/mL | solubility ([5]; organic solvent or mixture, EtOAc, 50° C.): < 10 mg/mL | solubility ([5]; organic solvent or mixture, EtOAc, RT): < 10 mg/mL | solubility ([5]; organic solvent or mixture, Heptane, 50° C.): < 10 mg/mL | solubility ([5]; organic solvent or mixture, Heptane, RT): < 10 mg/mL | solubility ([5]; organic solvent or mixture, IPA, 50° C.): 20 to 33 mg/mL | solubility ([5]; organic solvent or mixture, IPA, RT): 10 to 20 mg/mL | solubility ([5]; organic solvent or mixture, MEK, 50° C.): 10 to 20 mg/mL | solubility ([5]; organic solvent or mixture, MEK, RT): < 10 mg/mL | solubility ([5]; organic solvent or mixture, MTBE, 50° C.): < 10 mg/mL | solubility ([5]; organic solvent or mixture, MTBE, RT): < 10 mg/mL | solubility ([5]; organic solvent or mixture, MeOH, 50° C.): 50 to 100 mg/mL | solubility ([5]; organic solvent or mixture, MeOH, RT): 25 to 50 mg/mL | solubility ([5]; organic solvent or mixture, THF, 50° C.): 33 to 50 mg/mL | solubility ([5]; organic solvent or mixture, THF, RT): < 10 mg/mL | solubility ([5]; organic solvent or mixture, Toluene, 50° C.): < 10 mg/mL | solubility ([5]; organic solvent or mixture, Toluene, RT): < 10 mg/mL | solubility ([5]; water, H2O, 50° C.): 10 to 20 mg/mL | solubility ([5]; water, H2O, RT): < 10 mg/mL
SMILES: CC(C)c1nc(-c2cnc(N)c(OC(F)(F)F)c2)cn1C12CC(N3CCOCC3)(C1)C2.O=C(O)/C=C/C(=O)O [Example 11, 5-(2-isopropyl-1-(3-morpholinobicyclo[1.1.1]pentan-1-yl)-1H-imidazol-4-yl)-3-(trifluoromethoxy)pyridin-2-amine hydrogen fumarate]
